Read-outs that look alike come from different tables or passages of the source.
System: hypercholesterolemia golden hamster model
Experiment: In vivo pharmacodynamic screening in hypercholesterolemia model of golden hamster (plasma TC and LDL-C)
Conditions: for inhibition in vivo at 1 mg/kg / inhibition in vivo at 10 mg/kg / inhibition in vivo at 5 mg/kg / inhibition in vivo at 3 mg/kg: Mesocricetus auratus, po, 168 h; for LDL after administration / TC after administration / LDL-C after administration: 1 week, plasma; for reduction of plasma TC and LDL-C levels (in words): golden hamster hypercholesterolemic model, significant statistical difference; for effect of lowering cholesterol (screening result in words): in vivo pharmacodynamic screening test, Ezetimibe as positive control; for efficacy compared with the positive control (in words): positive control Ezetimibe
Method: 1. Establishment of Hypercholesterolemia Model of Golden Hamster:
The animals were subjected to acclimation feeding for 1 week with free feeding and drinking under a lighting condition of 10 h/14 h. On Day 8, the animals were raised with high fat feed (consisting of 0.5% cholesterol, 20% palm oil, 79.5% basal feed) for 1 week. Then, each animal was anesthetized by ether. After weighing, 0.5 ml blood was obtained from orbital vein, anticoagulated with heparin and centrifuged at 5000 rpm for 10 min. The plasma was collected and the levels of plasma TC (total cholesterol) and LDL-C (low density lipoprotein cholesterol) were determined by automatic biochemical analyzer. Animals with plasma TC of 9-15 mmol/L were selected as model animals (refer to the following reference for the method of animal modeling: Burrier, R. E., Smith, A. A., Mcgregor, D. G, Hoos, L. M., Zilli, D. L., Davis, H. R. The effect of acyl CoA: cholesterol acyltransferase inhibition on the uptake, esterification and secretion of cholesterol by the hamster small intestine. J. Pharm. Exp. Ther., 1995, 272, 156-163).
The animals were grouped according to TC and LDL-C levels and weight with 6 animals per group. Ezetimibe was used as positive control. The animals were intragastrically administered at a volume of 5 ml/kg for 1 week. Each animal was anesthetized by ether. After weighing, 0.5 ml blood was taken from orbital vein, anticoagulated with heparin, and centrifuged at 5000 rpm for 10 min. The plasma was collected and plasma TC (total cholesterol) and LDL-C (low density lipoprotein cholesterol) levels were determined by automatic biochemical analyzer to evaluate the efficacy of the compounds.

[1] = Table 10, read-out: Reducing LDL-C %
[2] = Table 10, read-out: Reducing TC %
[3] = Table 12, read-out: Reducing LDL-C %
[4] = Table 12, read-out: Reducing TC %
[5] = Table 11, 10 mg/kg intragastric
[6] = Table 11, baseline of group dosed 10 mg/kg
[7] = Table 11, baseline of group dosed 3 mg/kg
[8] = Table 8, read-out: Reducing LDL-C %
[9] = Table 8, read-out: Reducing TC %
[10] = Table 6, read-out: Reducing LDL-C %
[11] = Table 6, read-out: Reducing TC %

CC(=O)Oc1ccc([C@@H]2[C@@H](C/C=C(\CO)c3ccc(F)cc3)C(=O)N2c2ccc(F)cc2)cc1 [I-6(Z), (3R,4S)-4-(4-acetoxyphenyl)-1-(4-fluorophenyl)-3-[(Z)-3-(4-fluorophenyl)-4-hydroxy-but-2-enyl]azetidin-2-one]
inhibition in vivo at 1 mg/kg [1]: 50.2% | inhibition in vivo at 1 mg/kg [2]: 51.5% | inhibition in vivo at 10 mg/kg [1]: 70.4% | inhibition in vivo at 10 mg/kg [2]: 65.6% | LDL after administration (Table 9, 1 mg/kg intragastric): 1.57 mmol/L | TC after administration (Table 9, 1 mg/kg intragastric): 7.45 mmol/L | LDL after administration (Table 9, 10 mg/kg intragastric): 0.93 mmol/L | TC after administration (Table 9, 10 mg/kg intragastric): 5.28 mmol/L | reduction of plasma TC and LDL-C levels (in words): can significantly reduce the plasma TC and LDL-C levels | effect of lowering cholesterol (screening result in words): have the effect of lowering cholesterol | efficacy compared with the positive control (in words): more similar to the positive control

O=C1[C@H](C/C=C(\CO)c2ccc(F)cc2)[C@@H](c2ccc(Oc3ccccc3)cc2)N1c1ccc(F)cc1 [I-3(Z)]
inhibition in vivo at 10 mg/kg [3]: 66.3% | inhibition in vivo at 10 mg/kg [4]: 50.8% | LDL-C after administration [5]: 1.14 | TC after administration [5]: 6.23 | LDL-C before administration [6]: 3.38 ± 0.84 | TC before administration [6]: 12.67 ± 1.35 | reduction of plasma TC and LDL-C levels (in words): can significantly reduce the plasma TC and LDL-C levels | effect of lowering cholesterol (screening result in words): have the effect of lowering cholesterol | efficacy compared with the positive control (in words): more similar to the positive control

O=C1[C@H](C/C=C(\CO)c2ccc(F)cc2)[C@@H](c2ccc(OCc3ccccc3)cc2)N1c1ccc(F)cc1 [I-4(Z)]
inhibition in vivo at 5 mg/kg [3]: 53.5% | inhibition in vivo at 5 mg/kg [4]: 49.1% | LDL-C after administration (Table 11, 3 mg/kg intragastric): 1.51 | TC after administration (Table 11, 3 mg/kg intragastric): 6.48 | LDL-C before administration [7]: 3.25 ± 0.79 | TC before administration [7]: 12.73 ± 1.27 | reduction of plasma TC and LDL-C levels (in words): can significantly reduce the plasma TC and LDL-C levels | effect of lowering cholesterol (screening result in words): have the effect of lowering cholesterol | efficacy compared with the positive control (in words): more similar to the positive control

CC(=O)OC/C(=C\C[C@H]1C(=O)N(c2ccc(F)cc2)[C@@H]1c1ccc(OC(C)=O)cc1)c1ccc(F)cc1 [I-11(Z), (3R,4S)-3-[(Z)-4-acetoxy-3-(4-fluorophenyl)-but-2-enyl]-4-(4-acetoxyphenyl)-1-(4-fluorophenyl)azetidin-2-one]
inhibition in vivo at 1 mg/kg [1]: 47.7% | inhibition in vivo at 1 mg/kg [2]: 48% | inhibition in vivo at 10 mg/kg [1]: 59.2% | inhibition in vivo at 10 mg/kg [2]: 60.2% | LDL after administration (Table 9, 1 mg/kg intragastric): 1.65 mmol/L | TC after administration (Table 9, 1 mg/kg intragastric): 7.98 mmol/L | LDL after administration (Table 9, 10 mg/kg intragastric): 1.28 mmol/L | TC after administration (Table 9, 10 mg/kg intragastric): 6.11 mmol/L | reduction of plasma TC and LDL-C levels (in words): can significantly reduce the plasma TC and LDL-C levels | effect of lowering cholesterol (screening result in words): have the effect of lowering cholesterol

COc1ccc([C@@H]2[C@@H](C/C=C(\COC(C)=O)c3ccc(F)cc3)C(=O)N2c2ccc(F)cc2)cc1 [I-17(Z), (3R,4S)-3-[(Z)-4-acetoxy-3-(4-fluorophenyl)-but-2-enyl]-1-(4-fluorophenyl)-4-(4-methoxyphenyl)azetidin-2-one]
inhibition in vivo at 10 mg/kg [3]: 60.1% | inhibition in vivo at 10 mg/kg [4]: 59.8% | LDL-C after administration [5]: 1.19 | TC after administration [5]: 5.09 | LDL-C before administration [6]: 2.98 ± 0.72 | TC before administration [6]: 12.67 ± 1.28 | reduction of plasma TC and LDL-C levels (in words): can significantly reduce the plasma TC and LDL-C levels | effect of lowering cholesterol (screening result in words): have the effect of lowering cholesterol | efficacy compared with the positive control (in words): more similar to the positive control

Cc1ccc(C(=O)OC/C(=C\C[C@H]2C(=O)N(c3ccc(F)cc3)[C@@H]2c2ccc(O)cc2)c2ccc(F)cc2)cc1 [I-15(Z)]
inhibition in vivo at 1 mg/kg [8]: 46.5% | inhibition in vivo at 1 mg/kg [9]: 38.1% | inhibition in vivo at 3 mg/kg [8]: 70.4% | inhibition in vivo at 3 mg/kg [9]: 50.8% | LDL after administration (Table 7, 1 mg/kg intragastric): 1.99 mmol/L | TC after administration (Table 7, 1 mg/kg intragastric): 6.76 mmol/L | LDL after administration (Table 7, 3 mg/kg intragastric): 1.44 mmol/L | TC after administration (Table 7, 3 mg/kg intragastric): 5.37 mmol/L | reduction of plasma TC and LDL-C levels (in words): can significantly reduce the plasma TC and LDL-C levels | effect of lowering cholesterol (screening result in words): have the effect of lowering cholesterol | efficacy compared with the positive control (in words): more similar to the positive control

CC(=O)OC/C(=C\C[C@H]1C(=O)N(c2ccc(F)cc2)[C@@H]1c1ccc(OC(=O)c2ccccc2)cc1)c1ccc(F)cc1 [I-16(Z), (3R,4S)-3-[(Z)-4-acetoxy-3-(4-fluorophenyl)-but-2-enyl]-4-(4-benzoyloxyphenyl)-1-(4-fluorophenyl)azetidin-2-one]
inhibition in vivo at 1 mg/kg [1]: 31.7% | inhibition in vivo at 1 mg/kg [2]: 37.4% | inhibition in vivo at 10 mg/kg [1]: 65% | inhibition in vivo at 10 mg/kg [2]: 60.9% | LDL after administration (Table 9, 1 mg/kg intragastric): 2.15 mmol/L | TC after administration (Table 9, 1 mg/kg intragastric): 9.61 mmol/L | LDL after administration (Table 9, 10 mg/kg intragastric): 1.1 mmol/L | TC after administration (Table 9, 10 mg/kg intragastric): 6.0 mmol/L | reduction of plasma TC and LDL-C levels (in words): can significantly reduce the plasma TC and LDL-C levels | effect of lowering cholesterol (screening result in words): have the effect of lowering cholesterol

O=C(OC/C(=C\C[C@H]1C(=O)N(c2ccc(F)cc2)[C@@H]1c1ccc(O)cc1)c1ccc(F)cc1)c1ccccc1 [I-13(Z)]
inhibition in vivo at 1 mg/kg [10]: 58.1% | inhibition in vivo at 1 mg/kg [11]: 36.8% | inhibition in vivo at 10 mg/kg [10]: 68.8% | inhibition in vivo at 10 mg/kg [11]: 55.4% | LDL after administration (Table 5, 1 mg/kg intragastric): 1.98 mmol/L | TC after administration (Table 5, 1 mg/kg intragastric): 6.92 mmol/L | LDL after administration (Table 5, 10 mg/kg intragastric): 1.27 mmol/L | TC after administration (Table 5, 10 mg/kg intragastric): 4.81 mmol/L | reduction of plasma TC and LDL-C levels (in words): can significantly reduce the plasma TC and LDL-C levels | effect of lowering cholesterol (screening result in words): have the effect of lowering cholesterol

O=C(OC/C(=C\C[C@H]1C(=O)N(c2ccc(F)cc2)[C@@H]1c1ccc(O)cc1)c1ccc(F)cc1)c1ccc(F)cc1 [I-14(Z)]
inhibition in vivo at 1 mg/kg [8]: 28.6% | inhibition in vivo at 1 mg/kg [9]: 13.5% | inhibition in vivo at 3 mg/kg [8]: 52.3% | inhibition in vivo at 3 mg/kg [9]: 44.4% | LDL after administration (Table 7, 1 mg/kg intragastric): 2.56 mmol/L | TC after administration (Table 7, 1 mg/kg intragastric): 9.34 mmol/L | LDL after administration (Table 7, 3 mg/kg intragastric): 2.01 mmol/L | TC after administration (Table 7, 3 mg/kg intragastric): 6.06 mmol/L | reduction of plasma TC and LDL-C levels (in words): can significantly reduce the plasma TC and LDL-C levels | effect of lowering cholesterol (screening result in words): have the effect of lowering cholesterol

From patent publication US8623855B2, “Azetidinone compounds and medical use thereof” (Zhejiang Hisun Pharmaceutical Co., Ltd., priority 2009, dated 2014)
